In the supplement of paper PMC10307832:

Columns and labels:
Assay in all cases: relative viability (nuclei count vs DMSO), 5 days (fraction); higher = more cells survive
[1] = compound: CC1(C)CNc2cc(NC(=O)c3cccnc3NCc3ccncc3)ccc21 [Motesanib] + Nc1ncn([C@H]2C[C@H](O)[C@@H](CO)O2)c(=O)n1 [Decitabine] (partner 2 µM)
How it was run: (§1)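 Relative viability was taken as the ratio of nuclei in treated wells to nuclei in vehicle wells. Lung cancer cell lines in 1536-well plates received compounds by pin tool one day after seeding, either one drug alone or a fixed anchor-drug dose plus five library-drug doses (not always all listed) in √10 steps. Nuclei were counted on 4× images after 5 days of treatment, and values are medians of duplicate plates.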

[2] = compound: C[C@@]1(C(=O)Nc2ccc(F)nc2)CCCN1c1nc(Nc2cc(C3CC3)n[nH]2)c2cccn2n1 + C[C@]1(O)C[C@@H](c2nc(-c3ccc4ccc(-c5ccccc5)nc4c3)c3c(N)nccn32)C1 [Linsitinib] (partner 1 µM)
How it was run: as §1

[3] = compound: CC1(C)CNc2cc(NC(=O)c3cccnc3NCc3ccncc3)ccc21 [Motesanib] + CCNC(=O)c1noc(-c2cc(C(C)C)c(O)cc2O)c1-c1ccc(CN2CCOCC2)cc1 [Luminespib] (partner 0.01 µM)
How it was run: as §1

[4] = compound: CC1(C)CNc2cc(NC(=O)c3cccnc3NCc3ccncc3)ccc21 [Motesanib] + N=C(N)NC(=N)NCCc1ccccc1 [Phenformin] (partner 250 µM)
How it was run: as §1

NCI-H1648
relative viability ([1]; first compound 0.01 µM): 0.498
relative viability ([1]; first compound 0.3162 µM): 0.531
relative viability ([1]; first compound 1 µM): 0.42

SK-MES-1
relative viability ([2]; first compound 0.04 µM): 1.03
relative viability ([2]; first compound 0.1265 µM): 0.95
relative viability ([2]; first compound 0.4 µM): 0.957
relative viability ([2]; first compound 1.265 µM): 1.05
relative viability ([1]; first compound 0.01 µM): 0.358
relative viability ([1]; first compound 0.03162 µM): 0.383
relative viability ([1]; first compound 0.1 µM): 0.59
relative viability ([1]; first compound 0.3162 µM): 0.561
relative viability ([1]; first compound 1 µM): 0.695
relative viability ([3]; first compound 0.01 µM): 0.84
relative viability ([3]; first compound 0.03162 µM): 0.842
relative viability ([3]; first compound 0.1 µM): 0.986
relative viability ([3]; first compound 0.3162 µM): 0.785
relative viability ([3]; first compound 1 µM): 0.721
relative viability ([4]; first compound 0.01 µM): 0.624
relative viability ([4]; first compound 0.03162 µM): 0.588
relative viability ([4]; first compound 0.1 µM): 0.714
relative viability ([4]; first compound 0.3162 µM): 0.703
relative viability ([4]; first compound 1 µM): 0.658

HCC-366
relative viability ([2]; first compound 0.04 µM): 0.732
relative viability ([2]; first compound 0.1265 µM): 0.446
relative viability ([2]; first compound 0.4 µM): 0.459
relative viability ([2]; first compound 1.265 µM): 0.677
relative viability ([1]; first compound 0.01 µM): 0.381
relative viability ([1]; first compound 0.03162 µM): 0.439
relative viability ([1]; first compound 0.1 µM): 0.416
relative viability ([1]; first compound 0.3162 µM): 0.397
relative viability ([1]; first compound 1 µM): 0.635
relative viability ([4]; first compound 0.01 µM): 0.628
relative viability ([4]; first compound 0.03162 µM): 0.53
relative viability ([4]; first compound 0.1 µM): 0.619
relative viability ([4]; first compound 0.3162 µM): 0.643
relative viability ([4]; first compound 1 µM): 0.587

201T
relative viability ([2]; first compound 0.04 µM): 0.97
relative viability ([2]; first compound 0.1265 µM): 0.97
relative viability ([2]; first compound 0.4 µM): 0.908
relative viability ([2]; first compound 1.265 µM): 1.04
relative viability ([1]; first compound 0.01 µM): 0.84
relative viability ([1]; first compound 0.03162 µM): 0.864
relative viability ([1]; first compound 0.1 µM): 0.925
relative viability ([1]; first compound 0.3162 µM): 0.939
relative viability ([1]; first compound 1 µM): 0.93
relative viability ([3]; first compound 0.01 µM): 1.02
relative viability ([3]; first compound 0.03162 µM): 1.02
relative viability ([3]; first compound 0.1 µM): 1.11
relative viability ([3]; first compound 0.3162 µM): 1.01
relative viability ([3]; first compound 1 µM): 1.05
relative viability ([4]; first compound 0.01 µM): 0.377
relative viability ([4]; first compound 0.03162 µM): 0.44
relative viability ([4]; first compound 0.1 µM): 0.485
relative viability ([4]; first compound 0.3162 µM): 0.48
relative viability ([4]; first compound 1 µM): 0.427

HCC-827
relative viability ([2]; first compound 0.04 µM): 0.94
relative viability ([2]; first compound 0.1265 µM): 0.973
relative viability ([2]; first compound 0.4 µM): 0.945
relative viability ([2]; first compound 1.265 µM): 0.961
relative viability ([1]; first compound 0.01 µM): 0.332
relative viability ([1]; first compound 0.03162 µM): 0.421
relative viability ([1]; first compound 0.1 µM): 0.406
relative viability ([1]; first compound 0.3162 µM): 0.344
relative viability ([1]; first compound 1 µM): 0.309
relative viability ([3]; first compound 0.01 µM): 0.777
relative viability ([3]; first compound 0.03162 µM): 0.809
relative viability ([3]; first compound 0.1 µM): 0.775
relative viability ([3]; first compound 0.3162 µM): 0.75
relative viability ([3]; first compound 1 µM): 0.576
relative viability ([4]; first compound 0.01 µM): 0.449
relative viability ([4]; first compound 0.03162 µM): 0.475
relative viability ([4]; first compound 0.1 µM): 0.405
relative viability ([4]; first compound 0.3162 µM): 0.448
relative viability ([4]; first compound 1 µM): 0.451

NCI-H647
relative viability ([2]; first compound 0.04 µM): 1.17
relative viability ([2]; first compound 0.1265 µM): 1.2
relative viability ([2]; first compound 0.4 µM): 0.952
relative viability ([2]; first compound 1.265 µM): 1.26
relative viability ([1]; first compound 0.01 µM): 0.43
relative viability ([1]; first compound 0.03162 µM): 0.441
relative viability ([1]; first compound 0.1 µM): 0.488
relative viability ([1]; first compound 0.3162 µM): 0.542
relative viability ([1]; first compound 1 µM): 0.535
relative viability ([3]; first compound 0.01 µM): 0.122
relative viability ([3]; first compound 0.03162 µM): 0.144
relative viability ([3]; first compound 0.1 µM): 0.387
relative viability ([3]; first compound 0.3162 µM): 0.165
relative viability ([3]; first compound 1 µM): 0.216
relative viability ([4]; first compound 0.01 µM): 0.491
relative viability ([4]; first compound 0.03162 µM): 0.554
relative viability ([4]; first compound 0.1 µM): 0.462
relative viability ([4]; first compound 0.3162 µM): 0.657
relative viability ([4]; first compound 1 µM): 0.524

NCI-H2023
relative viability ([2]; first compound 0.04 µM): 0.699
relative viability ([2]; first compound 0.1265 µM): 0.619
relative viability ([2]; first compound 0.4 µM): 0.537
relative viability ([2]; first compound 1.265 µM): 0.657
relative viability ([1]; first compound 0.01 µM): 0.23
relative viability ([1]; first compound 0.03162 µM): 0.226
relative viability ([1]; first compound 0.1 µM): 0.281
relative viability ([1]; first compound 0.3162 µM): 0.25
relative viability ([1]; first compound 1 µM): 0.347
relative viability ([3]; first compound 0.01 µM): 0.778
relative viability ([3]; first compound 0.03162 µM): 0.687
relative viability ([3]; first compound 0.1 µM): 0.855
relative viability ([3]; first compound 0.3162 µM): 0.811
relative viability ([3]; first compound 1 µM): 0.783
relative viability ([4]; first compound 0.01 µM): 0.387
relative viability ([4]; first compound 0.03162 µM): 0.297
relative viability ([4]; first compound 0.1 µM): 0.443
relative viability ([4]; first compound 0.3162 µM): 0.421
relative viability ([4]; first compound 1 µM): 0.463

NCI-H520
relative viability ([2]; first compound 0.04 µM): 0.951
relative viability ([2]; first compound 0.1265 µM): 0.867
relative viability ([2]; first compound 0.4 µM): 0.915
relative viability ([2]; first compound 1.265 µM): 1.07
relative viability ([1]; first compound 0.01 µM): 0.554
relative viability ([1]; first compound 0.03162 µM): 0.538
relative viability ([1]; first compound 0.1 µM): 0.626
relative viability ([1]; first compound 0.3162 µM): 0.613
relative viability ([1]; first compound 1 µM): 0.669
relative viability ([3]; first compound 0.01 µM): 0.22
relative viability ([3]; first compound 0.03162 µM): 0.276
relative viability ([3]; first compound 0.1 µM): 0.27
relative viability ([3]; first compound 0.3162 µM): 0.196
relative viability ([3]; first compound 1 µM): 0.242
relative viability ([4]; first compound 0.01 µM): 0.538
relative viability ([4]; first compound 0.03162 µM): 0.671
relative viability ([4]; first compound 0.1 µM): 0.468
relative viability ([4]; first compound 0.3162 µM): 0.587
relative viability ([4]; first compound 1 µM): 0.499

RERF-LC-KJ
relative viability ([2]; first compound 0.04 µM): 0.868
relative viability ([2]; first compound 0.1265 µM): 0.818
relative viability ([2]; first compound 0.4 µM): 0.838
relative viability ([2]; first compound 1.265 µM): 0.857
relative viability ([1]; first compound 0.01 µM): 0.652
relative viability ([1]; first compound 0.03162 µM): 0.752
relative viability ([1]; first compound 0.1 µM): 0.719
relative viability ([1]; first compound 0.3162 µM): 0.67
relative viability ([1]; first compound 1 µM): 0.665
relative viability ([3]; first compound 0.01 µM): 1.31
relative viability ([3]; first compound 0.03162 µM): 1.2
relative viability ([3]; first compound 0.1 µM): 1.12
relative viability ([3]; first compound 0.3162 µM): 1.38
relative viability ([3]; first compound 1 µM): 1.27
relative viability ([4]; first compound 0.01 µM): 0.462
relative viability ([4]; first compound 0.03162 µM): 0.389
relative viability ([4]; first compound 0.1 µM): 0.407
relative viability ([4]; first compound 0.3162 µM): 0.373
relative viability ([4]; first compound 1 µM): 0.467

A-427
relative viability ([2]; first compound 0.04 µM): 1.11
relative viability ([2]; first compound 0.1265 µM): 1.05
relative viability ([2]; first compound 0.4 µM): 1.08
relative viability ([2]; first compound 1.265 µM): 1.16
relative viability ([1]; first compound 0.01 µM): 0.563
relative viability ([1]; first compound 0.03162 µM): 0.554
relative viability ([1]; first compound 0.1 µM): 0.544
relative viability ([1]; first compound 0.3162 µM): 0.568
relative viability ([1]; first compound 1 µM): 0.556
relative viability ([3]; first compound 0.01 µM): 0.872
relative viability ([3]; first compound 0.03162 µM): 1.05
relative viability ([3]; first compound 0.1 µM): 0.769
relative viability ([3]; first compound 0.3162 µM): 1.24
relative viability ([3]; first compound 1 µM): 1.05
relative viability ([4]; first compound 0.01 µM): 0.239
relative viability ([4]; first compound 0.03162 µM): 0.294
relative viability ([4]; first compound 0.1 µM): 0.319
relative viability ([4]; first compound 0.3162 µM): 0.374
relative viability ([4]; first compound 1 µM): 0.323
